# Source: patent US8785380B2 (priority 2011, dated 2014)
# Key:
# [1] = male, Wistar albino, rat, in vivo, po, 250 mg/kg
# Protocol: Concentration was determined by HPLC/PDA detection.
# […] blood was collected after each time point, ca. 0, 0.5, 1, 3, 5, 10 and 24 hours respectively into heparinized tubes and centrifuged at 6000×g for 15 minutes. Plasma was decanted and stored at −80° C. until analysis. […] Briefly, 1 mL of plasma was extracted with 3×10 mL of ethyl acetate and is dried over anhydrous sodium sulphate and evaporated to dryness. The residue was then made up to 10 mL with methanol and 20 μL was injected to Shimadzu model LC-20 AT HPLC fitted with a PDA detector model M20A using a reverse phase C18 column (Phenomenex 250×4.6 mm, 5μ) and methanol mobile phase monitored at 420 nm.
# Curcuminoid retention time was confirmed by repeated 10 analyses at 50 mg level on same column under identical conditions. […] Analysis was performed by incorporating a Waters Alliance LC fitted with Waters 3100 ESI mass detector.
# [2] = human, in vivo, po
# Protocol: The enhancement of bioavailability was also tested on human volunteers of age group between 25 to 50, who were healthy and not involved in any medication or health supplementation. The volunteers were not allowed to take turmeric-containing food for two days prior to the test.
# 6 mL blood of each volunteer was withdrawn at 0, 0.5, 1, 3, 5, 8 and 24 hours respectively and plasma samples were deep-frozen at −80° C. till analysis.
# [3] = In vitro release of curcumin at pH 6.8 and pH 1.2, 37 °C; assay type: physicochemical; details: for Cumulative percent of release of curcumin: 37 °C, after 24 hour
# Protocol: Each data point is an average of 3 measurements (n=3) performed under identical conditions. […] Studies were performed in triplicate and mean cumulative percentage of released curcumin was calculated and plotted against time. […] This could be attributed to the very slow initial swelling of polysaccharide chains in water and its further dissolution to allow the leaching of entrapped curcumin into the solution in the dissolution flask.
structure (smiles),measurement,setting,value
"COc1cc(/C=C/C(=O)CC(=O)/C=C/c2ccc(O)c(OC)c2)ccc1O [unformulated curcumin, curcumin]",Tmax (time taken to reach maximum concentration in plasma),[1],3 h
same,time of maximum absorption of curcuminoids in the plasma,[2],around 30 min
same,curcumin dissolved,[3]; after 24 hours,around 0.4%
same,Cumulative percent of release of curcumin,[3]; pH 1.2 0.1M HCl,0.06%
same,Cumulative percent of release of curcumin,[3]; pH 6.8 phosphate buffer,0.08%
